Assays:
Jack Frost Blight = assay: Orchard #6 field treatment of blight-infected apple trees; format: in vivo
Protocol: Apple trees at Orchard #6 infected with Jack Frost Blight (FIGS. 9A, 9B and 9C) were treated with 2 ppm (FIG. 10A), 5 ppm, 10 ppm (FIG. 10B) or 25 ppm (FIG. 10C) of ClO2. While blight was easily found in untreated areas of the block, only 2 strikes were found in the 2 ppm test area, no strikes were found in the 5 ppm area, 1 strike was found in the 10 ppm area, and 1 strike was found at the very end of the 25 ppm area (it is unclear whether that part of the area was actually treated or treated fully).

[1] = test system: Red Blotch Virus (Grablovirus or GRBav); assay: Field trials on grape vines infected with Red Blotch Virus; format: in vivo
Protocol: Field trials were performed on grape vines infected with Red Blotch Virus (Grablovirus or GRBav).
Grape vines were treated with (36% 36% hydrochloric acid, 8% 60% active HEDPA, 0.5% 120 grain vinegar, 0.5% 85% phosphoric acid, and 55% water, all by weight) and (3.1% 60% active HEDPA, 1.6% 45% active potassium hydroxide, […], all by weight). ClO2 was made using a CH2O-ClO2 generator, and applied using an orchard sprayer. 200 gallons of treated water was applied per acre, and the treated water contained 15 ppm ClO2. The air temperature was 70° F.-90° F. on the days of application.
Half of the treated rows were pruned with shears dipped in water containing 30 to 50 ppm chlorine bleach.

[2] = test system: Erwinia amylovora ("Fire Blight"); assay: Field experiment in apple and pear tree orchard infected with Fire Blight; format: in vivo
Protocol: An apple and pear tree orchard infected with Erwinia amylovora (“Fire Blight”) was treated with 2 ppm, 5 ppm, 10 ppm, and 25 ppm ClO2 as described herein. Previous unsuccessful treatments included foliar medications and metal (Cu) suspended in oil, and Tetramyacin and Oxytetracycline application. These are very expensive medication option(s) that are becoming obsolete w/resistance.
The treatment protocol at this orchard included a three step approach: a) irrigation water; b) topical application before first bloom (e.g., begin topical treatment before primary bloom event and all the way through second blooming event); and c) ooze treatment/vector suppression. Given the timing of this trial, only step C is relevant.
Trees were sprayed when the temperature reached a minimum of 50° F. The temperature for treating bacterial ooze should be between 75-90° F., with highest “safe” rates of ClO2 used to prevent spread through insect and pollination activity. The residual phosphorus (from phosphonates) should have lasting protection properties even days after a topical application.
Rows were marked based on the concentration of ClO2 to be applied. Each concentration rate was applied slowly over four rows of trees. Two rows of trees were left untreated between each of the treated rows to prevent drift. After an application at a particular concentration was complete, the pump speed was increased or decreased to adjust the ClO2 concentration for the next application.

[3] = test system: Erwinia amylovora ("Fire Blight"); settings: before the ClO2 trial; cited from earlier work

[O][Cl+][O-] [ClO2, chlorine dioxide]
blight strikes found in test area (Jack Frost Blight; 2 ppm ClO2 test area): 2 strikes | blight strikes found in test area (Jack Frost Blight; 5 ppm ClO2 area): no strikes | blight strikes found in test area (Jack Frost Blight; 10 ppm ClO2 area): 1 strike | blight strikes found in test area (Jack Frost Blight; 25 ppm ClO2 area, very end (unclear whether treated fully)): 1 strike | less GRBav than the untreated control area ([1]; 15 ppm ClO2, 200 gallons per acre, pruned with ClO2-sanitized shears): approximately 85% | less virus than the untreated control area ([1]; 15 ppm ClO2, 200 gallons per acre, pruned with shears dipped in chlorine bleach): approximately 75% | reduction in the amount of virus on the grape plants ([1]; 15 ppm ClO2, both pruning groups): 75-85% | new blight strikes observed ([2]; 2 ppm zone): One | new blight found ([2]; remaining test zones (5 ppm, 10 ppm, 25 ppm)): no new blight | ClO2 concentration effective for disease control ([2]; topical spray on infected trees): ≥ 5 ppm

Tetramyacin
outcome of previous treatments of the orchard [3]: unsuccessful
